# Test results published in patent publication US11000491B2, “Amino-aryl-benzamide compounds and methods of use thereof” (HEPANOVA, INC., priority 2017, dated 2021).
# Legend:
# adiponectin = assay: Secreted adiponectin in differentiated 3T3-L1 cells by ELISA; type: cell-based; conditions: differentiated mouse 3T3-L1 cells
# Experimental: Differentiated, mouse 3T3-L1 cells were treated with varying concentrations of HPN-01, and the level of secreted adiponectin measured by ELISA.
# ACC = assay: Lipogenic gene mRNA by real-time qPCR in Huh7 cells; type: cell-based; conditions: 1 μM, 24 h
# Excerpt: (§1) FIG. 8. Inhibition of various lipogenic gene mRNA levels following treatment with HPN-01. […] Sterol regulatory element-binding protein-1 (SREBP-1); Sterol regulatory element-binding protein-2 (SREBP-2); Fatty acid synthase (FASN); Stearoyl-CoA-desaturase (SCD1); Acetyl-CoA carboxylase (ACC); Elongation of very long chain fatty acids fatty acid elongase 6 (ELOVL6); Low density liporeceptor (LDLR); Fatty acid desaturase 1 (FADS1); Diacylglycerol 0-Acyltransferase 1 (DGAT1); Diacylglycerol 0-Acyltransferase 2 (DGAT2).
# (§2) Huh7 cells were treated with 1 μM of HPN-01 for 24 h, and the mRNA expression levels of various pivotal lipogenic enzymes were quantified by real-time qPCR. […] Folds of inhibition were as follows: SREBP-1: 2.98±0.23; SREBP-2: 4.01±0.31; FASN: 3.87±0.23; SCD1: 4.63±0.48; ACC: 4.12±0.34; ELOVL6: 2.84±0.22; LDLR: 3.02±0.11; FADS1: 3.06±0.17; DGAT1: 1.72±0.27; DGAT2: 3.77±0.45.
# DGAT1 = assay: as above; type: cell-based; conditions: 1 μM, 24 h
# Excerpt: as §1, §2
# DGAT2 = assay: as above; type: cell-based; conditions: 1 μM, 24 h
# Excerpt: as §1, §2
# ELOVL6 = assay: as above; type: cell-based; conditions: 1 μM, 24 h
# Excerpt: as §1, §2
# FADS1 = assay: as above; type: cell-based; conditions: 1 μM, 24 h
# Excerpt: as §1, §2
# FASN = assay: as above; type: cell-based; conditions: 1 μM, 24 h
# Excerpt: as §1, §2
# LDLR = assay: as above; type: cell-based; conditions: 1 μM, 24 h
# Excerpt: as §1, §2
# SCD1 = assay: as above; type: cell-based; conditions: 1 μM, 24 h
# Excerpt: as §1, §2
# SREBP-1 = assay: as above; type: cell-based; conditions: 1 μM, 24 h
# Excerpt: as §1, §2
# SREBP-2 = assay: as above; type: cell-based; conditions: 1 μM, 24 h
# Excerpt: as §1, §2
# nSTZ+HFD NASH mice = assay: Streptozotocin (STZ) and high fat diet-induced (nSTZ+HFD) NASH mice; type: in vivo, C57/BL6J mice; conditions: 5 or 15 mpk orally BID, 3 weeks
# Experimental: FIG. 27. Design of study to test in vivo HPN-01 efficacy on streptozotocin (STZ) and high fat diet-induced (nSTZ+HFD) NASH mice.
# The effect of HPN-01 on various physical and biochemical parameters in mice induced to develop NASH was tested. Briefly, newborn C57/BL6J mice were divided into 5 groups, with 8 animals per group. […] The remaining four groups were injected on days 2, 3 and 4, with Vehicle (Vehicle consists of 40% PEG400:10% Cremophor EL:50% water) containing 90 μg of streptozotocin (STZ), and fed a high fat diet (HFD) from week 4 through week 9 to establish NASH hallmarks in the liver. One of the groups (Vehicle group) that received STZ was not given any further drug treatment. The remaining three groups received either orally administered Telmisartan or orally administered HPN-01 starting at week 6 and continuing for 3 weeks. Telmisartan was orally administered once per day (QD) at a dosage of 10 mpk (mg/kg weight); this group served as a positive control. HPN-01 was administrated orally twice a day (BID) with either a lower (5 mpk) or a higher (15 mpk) dose. For each group, body weight and food intake were recorded daily.
# At the end of the study, animals were fasted overnight, and fasted blood glucose levels measured and compared with a fasted glucose level obtained on Day 1 of the study.
# Mice were then euthanized, and whole blood drawn by cardiac puncture. Sera were prepared and stored at −80° C. for alanine aminotransferase (ALT), aspartate aminotransferase (AST), triglyceride (TG) and total cholesterol (TC) detection. Livers were isolated and liver weights were recorded. Liver tissues were stored at −80° C. for TG, TC detection, measurement of various inflammatory and fibrotic markers, and pathological studies.
# Liver tissues from various groups from the study shown in FIG. 27 were observed under a microscope following Hematoxylin and Eosin (H&E) stain and Oil-red-O staining, and an NAFLD activity score determined. Additional NAFLD/NASH pathology scores were also determined, including a hepatic steatosis score (FIG. 35B), a ballooning score (FIG. 35C) and an inflammation score (FIG. 35D).
smiles,measurement,setting,value
"NC(=O)c1cc(-c2ccc(Cl)cc2)cc(-c2ccc(S(N)(=O)=O)cc2)c1N [HPN-01, 2-amino-3-(p-sulfonamidophenyl)-5-(p-chlorophenyl) benzamide]",IC50,adiponectin,320 nM
same,Folds of inhibition ACC mRNA,ACC,4.12±0.34 fold
same,Folds of inhibition DGAT1 mRNA,DGAT1,1.72±0.27 fold
same,Folds of inhibition DGAT2 mRNA,DGAT2,3.77±0.45 fold
same,Folds of inhibition ELOVL6 mRNA,ELOVL6,2.84±0.22 fold
same,Folds of inhibition FADS1 mRNA,FADS1,3.06±0.17 fold
same,Folds of inhibition FASN mRNA,FASN,3.87±0.23 fold
same,Folds of inhibition LDLR mRNA,LDLR,3.02±0.11 fold
same,Folds of inhibition SCD1 mRNA,SCD1,4.63±0.48 fold
same,Folds of inhibition SREBP-1 mRNA,SREBP-1,2.98±0.23 fold
same,Folds of inhibition SREBP-2 mRNA,SREBP-2,4.01±0.31 fold
same,body weight,nSTZ+HFD NASH mice,no effect
same,daily food intake,nSTZ+HFD NASH mice,no effect
same,fasted blood glucose levels,nSTZ+HFD NASH mice; Day-22 vs Day-1,no effect
same,elevation of hepatic TC,nSTZ+HFD NASH mice; dose-dependent,significantly reversed
same,elevation of hepatic TG,nSTZ+HFD NASH mice; dose-dependent,significantly reversed
same,elevation of serum ALT,nSTZ+HFD NASH mice; dose-dependent,significantly reversed
same,elevation of serum AST,nSTZ+HFD NASH mice; dose-dependent,significantly reversed
same,increase of serum total cholesterol (TC),nSTZ+HFD NASH mice; dose-dependent,significantly abated
same,increase of serum triglyceride (TG),nSTZ+HFD NASH mice; dose-dependent,significantly abated
same,liver COL1A1 level,nSTZ+HFD NASH mice; dose-dependent,reduced
same,liver MCP-1 mRNA,nSTZ+HFD NASH mice; dose-dependent,significantly suppressed
same,liver TGF-β1 level,nSTZ+HFD NASH mice; dose-dependent,reduced
same,liver TIMP-1 level,nSTZ+HFD NASH mice; dose-dependent,reduced
same,liver TNF-α mRNA,nSTZ+HFD NASH mice; dose-dependent,significantly suppressed
